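1) Cells in 96-well plates. 2) Compound, 48 h, 5 concentrations. 3) Linear interpolation between surrounding doses. 4) Unreached endpoint = highest concentration. GI50 marks 50% less growth. Definition used: TGI = concentration required for complete inhibition of growth.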
Legend:
Assay in all cases: growth of human tumour cells (NCI), 48 h
[1] = test system: HCC-2998 colon
[2] = test system: SW-620 colon
[3] = test system: A549 NSCLC
[4] = test system: RXF 393 renal
[5] = test system: SF-268 CNS
[6] = test system: KM12 colon
[7] = test system: CAKI-1 renal
[8] = test system: NCI-H460 lung
[9] = test system: U251 CNS
[10] = test system: NCI-H23 lung
[11] = test system: 786-0 renal
[12] = test system: SK-OV-3 ovarian
[13] = test system: A498 renal
[14] = test system: OVCAR-8 ovarian
[15] = test system: SNB-19 CNS
[16] = test system: BT-549 breast
[17] = test system: EKVX NSCLC
[18] = test system: NCI-H226 lung
[19] = test system: M14 melanoma
[20] = test system: HCT-116 colon
[21] = test system: PC-3 prostate
[22] = test system: SN12C renal
[23] = test system: HT29 colon
[24] = test system: SF-295 CNS
[25] = test system: OVCAR-5 ovarian
[26] = test system: LOX IMVI melanoma
[27] = test system: NCI/ADR-RES ovarian
[28] = test system: SF-539 CNS
[29] = test system: MDA-MB-435
[30] = test system: HCT-15 colon
[31] = test system: IGROV1 ovarian
[32] = test system: MDA-MB-231 breast
[33] = test system: UO-31 renal
[34] = test system: COLO 205 colon
[35] = test system: TK-10 renal
[36] = test system: HOP-62 NSCLC
[37] = test system: SNB-75 CNS
[38] = test system: UACC-257 melanoma
[39] = test system: SK-MEL-28 melanoma
[40] = test system: DU-145 prostate
[41] = test system: NCI-H522 lung
[42] = test system: HS 578T breast
[43] = test system: SK-MEL-5 melanoma
[44] = test system: CCRF-CEM leukemia
[45] = test system: OVCAR-3 ovarian
[46] = test system: ACHN renal
[47] = test system: SK-MEL-2 melanoma
[48] = test system: OVCAR-4 ovarian
[49] = test system: RPMI-8226 leukemia
[50] = test system: T-47D breast
[51] = test system: MALME-3M melanoma
[52] = test system: UACC-62 melanoma
[53] = test system: MCF7 breast
[54] = test system: MOLT-4 leukemia
[55] = test system: HOP-92 NSCLC

Q: Which TGI [1] does the source give for `Nc1ccc(C(=O)NN2C(=O)[C@H](Cl)C2c2ccc(Cl)cc2)cc1` (stereo partly specified) here?
A: 3.01 µM

Q: And the TGI [2]?
A: 4.96 µM

Q: And the TGI [3]?
A: 8.49 µM

Q: And the TGI [4]?
A: > 100 µM

Q: What about the TGI [5] of the same molecule?
A: 1.92 µM

Q: And the TGI [6]?
A: 2.99 µM

Q: And the TGI [7]?
A: 2.94 µM

Q: What about the TGI [8] of the same molecule?
A: > 100 µM

Q: And the TGI [9]?
A: 2.26 µM

Q: What about the TGI [10] of the same molecule?
A: 2.34 µM

Q: And the TGI [11]?
A: 2.6 µM

Q: And the TGI [12]?
A: 4.27 µM

Q: And the GI50 [13]?
A: 1.62 µM

Q: What about the TGI [13] of the same molecule?
A: 3.21 µM

Q: And the TGI [14]?
A: 3.68 µM

Q: What about the TGI [15] of the same molecule?
A: 3.69 µM

Q: What about the GI50 [16] of the same molecule?
A: 1.95 µM

Q: What about the TGI [16] of the same molecule?
A: 4.9 µM

Q: And the TGI [17]?
A: 12.8 µM

Q: And the TGI [18]?
A: 2.65 µM

Q: And the TGI [19]?
A: 3.11 µM

Q: And the TGI [20]?
A: 0.476 µM

Q: And the TGI [21]?
A: 3.2 µM

Q: What about the TGI [22] of the same molecule?
A: 2.83 µM

Q: And the TGI [23]?
A: 0.61 µM

Q: And the TGI [24]?
A: 9.31 µM

Q: What about the TGI [25] of the same molecule?
A: 8.23 µM

Q: And the GI50 [26]?
A: 0.113 µM

Q: And the TGI [26]?
A: 0.233 µM

Q: And the TGI [27]?
A: 3.83 µM

Q: What about the TGI [28] of the same molecule?
A: 3.6 µM

Q: And the TGI [29]?
A: 4.16 µM

Q: What about the TGI [30] of the same molecule?
A: 2.79 µM

Q: And the TGI [31]?
A: 4.54 µM

Q: And the TGI [32]?
A: 3.55 µM

Q: What about the TGI [33] of the same molecule?
A: 4.35 µM

Q: And the TGI [34]?
A: 4.14 µM

Q: And the TGI [35]?
A: 2.57 µM

Q: What about the TGI [36] of the same molecule?
A: 3.12 µM

Q: What about the TGI [37] of the same molecule?
A: 0.797 µM

Q: And the TGI [38]?
A: 3.63 µM

Q: What about the TGI [39] of the same molecule?
A: 1.8 µM

Q: And the TGI [40]?
A: 4.06 µM

Q: What about the TGI [41] of the same molecule?
A: > 100 µM

Q: And the TGI [42]?
A: 4.02 µM

Q: And the TGI [43]?
A: 4.27 µM

Q: What about the GI50 [44] of the same molecule?
A: 0.31 µM

Q: What about the TGI [44] of the same molecule?
A: 1.41 µM

Q: And the TGI [45]?
A: 2.55 µM

Q: What about the TGI [46] of the same molecule?
A: 2.48 µM

Q: What about the TGI [47] of the same molecule?
A: 4.37 µM

Q: What about the TGI [48] of the same molecule?
A: > 100 µM

Q: What about the TGI [49] of the same molecule?
A: 5.32 µM

Q: And the TGI [50]?
A: 3.88 µM

Q: And the TGI [51]?
A: 4.13 µM

Q: And the TGI [52]?
A: 3.69 µM

Q: How did the GI50 [1] turn out when `COc1cc2c(cc1OCc1ccccc1)N=CC1C[C@@H](O)CN1C2=O` (stereo partly specified) was run?
A: 17.1 µM

Q: What about the TGI [1] of the same molecule?
A: 37.1 µM

Q: What about the GI50 [2] of the same molecule?
A: 3.16 µM

Q: What about the TGI [2] of the same molecule?
A: 31.3 µM

Q: And the GI50 [3]?
A: 19.2 µM

Q: And the TGI [3]?
A: > 100 µM

Q: And the GI50 [4]?
A: 1.7 µM

Q: What about the TGI [4] of the same molecule?
A: 4.95 µM

Q: What about the GI50 [5] of the same molecule?
A: 3.41 µM

Q: What about the TGI [5] of the same molecule?
A: 26.7 µM

Q: And the GI50 [53]?
A: 5.06 µM

Q: What about the TGI [53] of the same molecule?
A: > 100 µM

Q: And the GI50 [6]?
A: 4.04 µM

Q: What about the TGI [6] of the same molecule?
A: 32 µM

Q: And the GI50 [7]?
A: 1.24 µM

Q: And the TGI [7]?
A: 6.78 µM

Q: And the GI50 [8]?
A: 10.7 µM

Q: And the TGI [8]?
A: > 100 µM

Q: And the GI50 [9]?
A: 2.86 µM

Q: What about the TGI [9] of the same molecule?
A: > 100 µM

Q: And the GI50 [10]?
A: 7.83 µM

Q: And the TGI [10]?
A: 25.3 µM

Q: And the GI50 [11]?
A: 2.26 µM

Q: And the TGI [11]?
A: 7.68 µM

Q: And the GI50 [12]?
A: 17.5 µM

Q: And the TGI [12]?
A: > 71.5 µM

Q: And the GI50 [13]?
A: 2.06 µM

Q: And the TGI [13]?
A: 5.25 µM

Q: What about the GI50 [54] of the same molecule?
A: 2.01 µM

Q: What about the TGI [54] of the same molecule?
A: 5.51 µM

Q: What about the GI50 [14] of the same molecule?
A: 8.35 µM

Q: What about the TGI [14] of the same molecule?
A: > 74.8 µM

Q: What about the GI50 [15] of the same molecule?
A: 6.52 µM

Q: What about the TGI [15] of the same molecule?
A: > 100 µM

Q: And the GI50 [16]?
A: 2.47 µM

Q: And the TGI [16]?
A: 9.54 µM

Q: What about the GI50 [17] of the same molecule?
A: 24.2 µM

Q: And the TGI [17]?
A: 56.4 µM

Q: What about the GI50 [18] of the same molecule?
A: 23.6 µM

Q: And the TGI [18]?
A: > 100 µM

Q: And the GI50 [19]?
A: 4.71 µM

Q: And the TGI [19]?
A: 19.5 µM

Q: What about the GI50 [20] of the same molecule?
A: 9.77 µM

Q: And the TGI [20]?
A: 42.2 µM

Q: What about the GI50 [21] of the same molecule?
A: 23.1 µM

Q: And the TGI [21]?
A: > 100 µM

Q: What about the GI50 [22] of the same molecule?
A: 5.77 µM

Q: What about the TGI [22] of the same molecule?
A: 24.2 µM

Q: And the GI50 [23]?
A: 7.22 µM

Q: What about the TGI [23] of the same molecule?
A: > 100 µM

Q: What about the GI50 [24] of the same molecule?
A: 4.62 µM

Q: And the TGI [24]?
A: > 71.5 µM

Q: What about the GI50 [55] of the same molecule?
A: 3.99 µM

Q: And the TGI [55]?
A: 39 µM

Q: And the GI50 [25]?
A: 3.37 µM

Q: What about the TGI [25] of the same molecule?
A: > 25.3 µM

Q: And the GI50 [26]?
A: 2.37 µM

Q: What about the TGI [26] of the same molecule?
A: 6.5 µM

Q: And the GI50 [27]?
A: 14.7 µM

Q: What about the TGI [27] of the same molecule?
A: > 56.7 µM

Q: And the GI50 [28]?
A: 2.11 µM

Q: What about the TGI [28] of the same molecule?
A: 6.76 µM

Q: And the GI50 [29]?
A: 3.88 µM

Q: And the TGI [29]?
A: 14.7 µM

Q: What about the GI50 [30] of the same molecule?
A: 15.2 µM

Q: What about the TGI [30] of the same molecule?
A: > 82.1 µM

Q: What about the GI50 [31] of the same molecule?
A: 6.89 µM

Q: And the TGI [31]?
A: > 60.7 µM

Q: What about the GI50 [32] of the same molecule?
A: 3.01 µM

Q: What about the TGI [32] of the same molecule?
A: 16.9 µM

Q: And the GI50 [33]?
A: 3.52 µM

Q: What about the TGI [33] of the same molecule?
A: 19.2 µM

Q: And the GI50 [34]?
A: 3.77 µM

Q: And the TGI [34]?
A: > 30.9 µM

Q: What about the GI50 [35] of the same molecule?
A: 2.37 µM

Q: What about the TGI [35] of the same molecule?
A: 12.7 µM

Q: And the GI50 [36]?
A: 2.4 µM

Q: What about the TGI [36] of the same molecule?
A: 9.52 µM

Q: And the GI50 [37]?
A: 9.08 µM

Q: And the TGI [37]?
A: 47 µM

Q: And the GI50 [38]?
A: 19.2 µM

Q: What about the TGI [38] of the same molecule?
A: > 59.6 µM

Q: What about the GI50 [39] of the same molecule?
A: 8.23 µM

Q: And the TGI [39]?
A: 28.4 µM

Q: What about the GI50 [40] of the same molecule?
A: 4.04 µM

Q: And the TGI [40]?
A: 72.1 µM

Q: And the GI50 [41]?
A: 1.4 µM

Q: What about the TGI [41] of the same molecule?
A: 7.43 µM

Q: What about the GI50 [42] of the same molecule?
A: 4.84 µM

Q: And the TGI [42]?
A: 18.6 µM

Q: What about the GI50 [43] of the same molecule?
A: 2.53 µM

Q: What about the TGI [43] of the same molecule?
A: 5.38 µM

Q: And the GI50 [44]?
A: 1.79 µM

Q: And the TGI [44]?
A: 12.2 µM

Q: And the GI50 [45]?
A: 2.64 µM

Q: And the TGI [45]?
A: 18.2 µM

Q: What about the GI50 [46] of the same molecule?
A: 5.83 µM

Q: And the TGI [46]?
A: 50 µM

Q: And the GI50 [47]?
A: 3.08 µM

Q: What about the TGI [47] of the same molecule?
A: 9.19 µM

Q: What about the GI50 [48] of the same molecule?
A: 12.4 µM

Q: And the TGI [48]?
A: > 73.5 µM

Q: What about the GI50 [49] of the same molecule?
A: 2.57 µM

Q: What about the TGI [49] of the same molecule?
A: > 28 µM

Q: What about the GI50 [50] of the same molecule?
A: 1.95 µM

Q: What about the TGI [50] of the same molecule?
A: 7.09 µM

Q: What about the GI50 [51] of the same molecule?
A: 9.08 µM

Q: And the TGI [51]?
A: 26 µM

Q: What about the GI50 [52] of the same molecule?
A: 0.824 µM

Q: And the TGI [52]?
A: 17.1 µM

Source: PubChem BioAssay (NCI)
